Experiment: Equilibrium aqueous solubility
Format: physicochemical
Conditions: physiologically relevant pH's

With `COc1cc2c(N3CCN(C(=O)Nc4ccc(OC(C)C)cc4)CC3)ncnc2cc1OCCCN1CCCCC1.C[C@H](O)C(=O)O` [Form 4, 4-[6-methoxy-7-(3-piperidin-1-yl-propoxy)quinazolin-4-yl]piperazine-1-carboxylic acid(4-isopropoxyphenyl)-amide (L)-lactate (I) Form 4] the solubility in water was “greater than 325 mg/mL”.

For `COc1cc2c(N3CCN(C(=O)Nc4ccc(OC(C)C)cc4)CC3)ncnc2cc1OCCCN1CCCCC1.C[C@H](O)C(=O)O` [Form 1, 4-[6-methoxy-7-(3-piperidin-1-yl-propoxy)quinazolin-4-yl]piperazine-1-carboxylic acid(4-isopropoxyphenyl)-amide (L)-lactate (I) Form 1], the solubility in water was “greater than 450 mg/mL”.
